Experimental data reported in patent US7906128B2, “Use of neuronal sodium channel antagonists for the control of ectoparasites in homeothermic animals” (priority 2003, dated 2011).
Converted amounts (≈) assume the structure as drawn.

Legend:
adult fleas = assay: Efficacy against adult fleas on beagles, full body spray; assay type: in vivo; details: full body spray 0.40% (wt/vol), Compound A 20 mg/kg, Standard 14.5 mg/kg body wt.
Experimental: In this evaluation twelve beagles are each infested with 100 unfed adult fleas. Each dog is assessed for its ability to retain fleas by a comb count taken 24 hours post infestation. The dogs are blocked by these flea counts and randomly assigned to one of four treatment groups. Test compounds are applied as a full body spray of a 0.40% (wt/vol) solution of test compound in a mixture of 1% Miglyol in N-methyl-2-pyrrolidinone. One day prior to treatment each dog is infested with 100 fleas and one day post treatment the dogs are comb counted to check for knockdown efficacy. The dogs were subsequently re-infested with fleas and comb counted 24 hours later at weekly intervals.

[1] = tested on: newly emerged larvae of blowfly, Lucilia sericata; assay: Efficacy against blowfly larvae on treated filter paper discs; details: for LC50: Lucilia sericata
Experimental: In this evaluation, filter paper discs are treated with an acetone solution of test compound and allowed to dry.

N#Cc1nn(-c2c(Cl)cc(C(F)(F)F)cc2Cl)c(N)c1[S+]([O-])C(F)(F)F (centres unmarked) [Standard, fipronil]
% Efficacy relative to nontreated control (adult fleas; 1 DAT): 100% | % Efficacy relative to nontreated control (adult fleas; 7 DAT): 100% | % Efficacy relative to nontreated control (adult fleas; 14 DAT): 100% | % Efficacy relative to nontreated control (adult fleas; 21 DAT): 100% | % Efficacy relative to nontreated control (adult fleas; 28 DAT): 100% | % Efficacy relative to nontreated control (adult fleas; 35 DAT): 100% | % Efficacy relative to nontreated control (adult fleas; 42 DAT): 100% | % Efficacy relative to nontreated control (adult fleas; 49 DAT): 100% | % Efficacy relative to nontreated control (adult fleas; 56 DAT): 100% | % Efficacy relative to nontreated control (adult fleas; 62 DAT): 99.5% | LC50 ([1]; 24 h): 0.1 µg/mL (≈ 0.229 µM) | LC50 ([1]; 48 h): 0.07 µg/mL (≈ 0.16 µM) | LC99 ([1]; mortality at 24 h): 0.40 µg/mL | LC99 ([1]; mortality at 48 h): 0.30 µg/mL
